Experimental data taken from patent publication US20070027150A1 (priority 2005, published 2007).

These compounds were tested against His-tagged N-terminal ATP binding domain (amino acid residues 9-236) of HSP90α (Homo sapiens, UniProt P07900) (assay: HSP90 inhibitor binding potency: TRF competition binding assay). Conditions: Table II; read-out: Hsp90 IC50 Range.
Outline: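 Competition against biotinylated radicicol for binding to the His-tagged 9-236 ATP domain of HSP90α: 2 h, room temperature, HEPES/MgCl2/KCl/BSA buffer. Streptavidin capture, then europium-labeled anti-His antibody and enhancement solution; europium counts give IC50.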

**Q.** `CCc1nc(N)nc2c1C(=O)CC(c1ccc(F)cc1-c1cnc(OC)c(OC)n1)C2` (centres unmarked) [Compound 324, 2-amino-7-[2-(5,6-dimethoxy-pyrazin-2-yl)-4-fluoro-phenyl]-4-ethyl-7,8-dihydro-6H-quinazolin-5-one] was tested. Which IC50 did it give?
**A.** The IC50 was < 1000 nM.

**Q.** With `CCc1nc(N)nc2c1C(=O)CC(c1ccc(F)cc1-c1cncc(OC)n1)C2` (centres unmarked) [Compound 325, 2-amino-4-ethyl-7-[4-fluoro-2-(6-methoxy-pyrazin-2-yl)-phenyl]-7,8-dihydro-6H-quinazolin-5-one] as the compound, how does the IC50 read?
**A.** Its IC50 is < 1000 nM.

**Q.** With `CC(=O)c1ccc(-c2cc(F)ccc2[C@@H]2CC(=O)c3c(C)nc(N)nc3C2)s1` [Compound 326, (S)-7-[2-(5-Acetyl-thiophen-2-yl)-4-fluoro-phenyl]-2-amino-4-methyl-7,8-dihydro-6H-quinazolin-5-one] as the compound, how does the IC50 read?
**A.** Its IC50 is 1000 to 10000 nM.

**Q.** With `COc1cc(-n2ccnc2C2CC(=O)c3c(C)nc(N)nc3C2)c(OC)cc1Cl` (centres unmarked) [Compound 327, 2-amino-7-[1-(4-chloro-2,5-dimethoxy-phenyl)-1H-imidazol-2-yl]-4-methyl-7,8-dihydro-6H-quinazolin-5-one] as the compound, how does the IC50 read?
**A.** The IC50 was < 1000 nM.

**Q.** For `Cc1nc(N)nc2c1C(=O)CC(c1nccn1-c1ccc(Cl)cc1F)C2` (centres unmarked) [Compound 328, 2-amino-7-[1-(4-chloro-2-fluoro-phenyl)-1H-imidazol-2-yl]-4-methyl-7,8-dihydro-6H-quinazolin-5-one], which IC50 is on record?
**A.** The IC50 was 1000 to 10000 nM.

**Q.** For `Cc1ccc(-n2ccnc2C2CC(=O)c3c(C)nc(N)nc3C2)c(F)c1` (centres unmarked) [Compound 329, 2-amino-7-[1-(2-fluoro-4-methyl-phenyl)-1H-imidazol-2-yl]-4-methyl-7,8-dihydro-6H-quinazolin-5-one], which IC50 is on record?
**A.** The IC50 was 1000 to 10000 nM.

**Q.** Which IC50 does the source give for `COc1cc(Cl)c(C)cc1-n1ccnc1C1CC(=O)c2c(C)nc(N)nc2C1` (centres unmarked) [Compound 330, 2-amino-7-[1-(4-chloro-2-methoxy-5-methyl-phenyl)-1H-imidazol-2-yl]-4-methyl-7,8-dihydro-6H-quinazolin-5-one] here?
**A.** Its IC50 is 1000 to 10000 nM.

**Q.** With `Cc1nc(N)nc2c1C(=O)C[C@@H](c1ccc(F)cc1-c1cnc3ncn(C)c3n1)C2` [Compound 331, (S)-2-amino-7-[4-fluoro-2-(3-methyl-3H-imidazo[4,5-b]pyrazin-5-yl)-phenyl]-4-methyl-7,8-dihydro-6H-quinazolin-5-one] as the compound, how does the IC50 read?
**A.** The IC50 was > 10000 nM.

**Q.** For `COc1nc(-c2cc(F)ccc2[C@@H]2CC(=O)c3c(C)nc(N)nc3C2)cnc1C` [Compound 332, (S)-2-amino-7-[4-fluoro-2-(6-methoxy-5-methyl-pyrazin-2-yl)-phenyl]-4-methyl-7,8-dihydro-6H-quinazolin-5-one], which IC50 is on record?
**A.** The IC50 was < 1000 nM.

**Q.** With `CCc1cc(-n2ccnc2C2CC(=O)c3c(C)nc(N)nc3C2)ccc1C` (centres unmarked) [Compound 333, 2-amino-7-[1-(3-ethyl-4-methyl-phenyl)-1H-imidazol-2-yl]-4-methyl-7,8-dihydro-6H-quinazolin-5-one] as the compound, how does the IC50 read?
**A.** The IC50 was 1000 to 10000 nM.

**Q.** With `COc1nc(-c2cc(F)ccc2C2CC(=O)c3c(C)nc(N)nc3C2)cnc1Cl` (centres unmarked) [Compound 334, 2-amino-7-[2-(5-chloro-6-methoxy-pyrazin-2-yl)-4-fluoro-phenyl]-4-methyl-7,8-dihydro-6H-quinazolin-5-one] as the compound, how does the IC50 read?
**A.** The IC50 was < 1000 nM.

**Q.** For `CCc1nc(N)nc2c1C(=O)CC(c1ccc(F)cc1-c1cnc(N)c(OC)n1)C2` (centres unmarked) [Compound 335, 2-amino-7-[2-(5-amino-6-methoxy-pyrazin-2-yl)-4-fluoro-phenyl]-4-ethyl-7,8-dihydro-6H-quinazolin-5-one], which IC50 is on record?
**A.** The IC50 was < 1000 nM.

**Q.** How did the IC50 turn out when `CCOc1cncc(-c2cc(F)ccc2[C@@H]2CC(=O)c3c(C)nc(N)nc3C2)n1` [Compound 336, (S)-2-amino-7-[2-(6-ethoxy-pyrazin-2-yl)-4-fluoro-phenyl]-4-methyl-7,8-dihydro-6H-quinazolin-5-one] was run?
**A.** The IC50 was < 1000 nM.

**Q.** For `COc1nc(-c2cc(F)ccc2[C@@H]2CC(=O)c3c(C)nc(N)nc3C2)c(C)nc1N` [Compound 337, (S)-2-amino-7-[2-(5-amino-6-methoxy-3-methyl-pyrazin-2-yl)-4-fluoro-phenyl]-4-methyl-7,8-dihydro-6H-quinazolin-5-one], which IC50 is on record?
**A.** The IC50 was < 1000 nM.
